Experimental data published in patent US4900730A, “Preparation which promotes the absorption of peptides” (priority 1981, dated 1990).
Each block holds one molecule with its values, some of them ahead of it. No end group written: not given here.

Legend:
[1] = Rectal circulation with fatty acids as promoters (Example 15, Example 1 repeated)
Protocol: Absorption effects under conditions with various tonicities were examined.
The experiment was conducted in the following manner.
(The units in the Table are percents.)

[2] = Penicillin suppositories, concentration in plasma (Example 34); type: in vivo, S.D. male rats; details: Four fold tonicity suppository with 3.6% NaCl and 5% sodium adipate, intrarectal
Protocol: The dispersion was filled in a silicone tube (inner diameter 2.5 mm) to produce a rod-like suppository of 50 mg as a control suppository.
These suppositories were intrarectally administered to S.D. male rats (weighing about 250 g) and the concentration of Carbenicillin in blood was measured.
The concentration of Carbenicillin in blood was determined on sampled plasma by the use of Sarcina luteus ATCC 9341 in accordance with the conventional method.
The same experiment was effected on Dicloxacillin.Na.

[3] = rat, in vivo
Protocol: (§1) The experiment was conducted in the following manner. Sprague Dawley rats (male), weighing 200 to 300 g, were narcotized (after fast for 20 hours) with pentobarbital (50 mg/kg) and thereafter subjected to hypoabdominal incision for a first cannulation at a position about 1.5 cm from anus and also another cannulation at a position 5 cm above the first cannulation. Subsequently, the rectum was internally washed with about 50 ml of isotonic sodium chloride solution kept at 38° C., and samples each of 10 ml were circulated through rectum for 5 minutes (2 ml/minute) to make the concentration in the system constant. Then, 5 ml of each sample was circulated at a flow rate of 2 ml/minute, and samples each of 0.05 ml were collected at intervals of 10 minutes from 0 minute. Each sample was diluted to 5 ml with distilled water and the quantity of medicine disappeared by absorption was determined by UV spectrophotometer.
Quantities of 0.5 W/W % Cefmetazole.Na disappeared by absorption under isotonic and three-fold tonic conditions were determined, respectively, using sodium malate, sodium pyruvate, sodium phosphenolpyruvate, sodium β-hydroxybutyrate, sodium β-hydroxy glutarate, and sodium 2-phospho-D-glycerate.

[4] = Cephalothin concentration in blood after injection through anus (Example 6); type: in vivo, rat; details: with 6% sodium chloride and 1.0% disodium EDTA mono-ethylate vs 2% Cephalothin.Na control
Protocol: Using 2% solution of Cephalothin.Na (in 0.1M Tris-HCl buffer, pH 8.0) as Control, an injection agent was prepared by adding 6% sodium chloride and 1.0% disodium EDTA mono-ethylate to said solution.

[5] = Rectal circulation: Cephalothin disappeared by absorption (Examples 10-14, 16-18); details: rat, in vivo
Protocol: The experiments were conducted similarly as in Example 1. […] Each sample was diluted and the quantity of Cephalothin disappeared was determined by UV-spectrophotometer of high-speed liquid chromatography.

[6] = rabbit, in vivo, 250 mg/kg
[7] = rat, in vivo; remark: listed apart in the source
Protocol: as §1

[8] = Calcium concentration after intrarectal calcitonin preparation, relative effect (Example 8); type: in vivo, SD rats; details: after one hour, CVP and CT set at standard value of 1
[9] = Table 9, fatty acid 0.1 W/V %, Example 1 repeated, X 1
[10] = Table 9, fatty acid 0.1 W/V %, Example 1 repeated, X 4

Molecule: CCCC(=O)O [Butyric acid, butyric acid]
medicine disappeared by absorption, Osmotic pressure X 1 ([1]; rat, in vivo): 9.9 percents
medicine disappeared by absorption, Osmotic pressure X 2 ([1]; rat, in vivo): 17.1 percents
medicine disappeared by absorption, Osmotic pressure X 4 ([1]; rat, in vivo): 21.0 percents

Molecule: CC1(C)S[C@@H]2[C@H](NC(=O)C(C(=O)O)c3ccccc3)C(=O)N2[C@H]1C(=O)O (stereo partly shown) [Carbenicillin.Na]
Concentration in plasma 5 min. [2]: 5000 ng/mL
Concentration in plasma 10 min. [2]: 14700 ng/mL
Concentration in plasma 20 min. [2]: 11500 ng/mL
Concentration in plasma 30 min. [2]: 8900 ng/mL
Concentration in plasma 60 min. [2]: 5100 ng/mL
Concentration in plasma 90 min. [2]: 3100 ng/mL
Concentration in plasma 120 min. [2]: 1600 ng/mL

Molecule: CCCCCCCCCC(=O)[O-].[Na+] [Sodium caprate, sodium caprate]
medicine disappeared by absorption, Osmotic pressure X 1 [1, 9]: 5.2 percents
medicine disappeared by absorption, Osmotic pressure X 4 [1, 10]: 8.6 percents

Molecule: CCCCCC(=O)[O-].[Na+] [Sodium caproate, sodium caproate]
medicine disappeared by absorption, Osmotic pressure X 1 [1, 9]: 10.4 percents
medicine disappeared by absorption, Osmotic pressure X 2 ([1]; Table 9, fatty acid 0.1 W/V %, Example 1 repeated, X 2): 14.7 percents
medicine disappeared by absorption, Osmotic pressure X 4 [1, 10]: 17.2 percents

Molecule: CCCCCCCCCCCC(=O)[O-].[Na+] [Sodium laurate, sodium laurate]
medicine disappeared by absorption, Osmotic pressure X 1 [1, 9]: 3.9 percents
medicine disappeared by absorption, Osmotic pressure X 4 [1, 10]: 6.5 percents

Molecule: Tuberactinomycin
absorptions through rectum [7]: increased by the presence of EDTA.2Na and sodium chloride

Molecule: calcitonin (CGNLSTCMLGTYTQDFNKFHTFPQTAIGVGAP; ends and bridges not checked; cysteine pairing not given here; UniProt P01258 85-116, looked up) [CT]
relative effect on calcium concentration, Isotonic ([8]; glucose 0.25M): 1
relative effect on calcium concentration, 6-fold tonic ([8]; glucose 1.5M): 1.67
relative effect on calcium concentration, 3-fold tonic ([8]; glucose […]): 1.05

Next, values leading:

quantity of Cefmetazole.Na disappeared by absorption [3]: practically negligible
Molecule: CO[C@@]1(NC(=O)CSCC#N)C(=O)N2C(C(=O)O)=C(CSc3nnnn3C)CS[C@@H]21 [Cefmetazole.Na]

concentrations in blood [4]: significantly increased
Cephalothin disappeared by absorption, Osmotic pressure (%) X 1 [5]: 1.2%
Cephalothin disappeared by absorption, Osmotic pressure (%) X 2 [5]: 1.6%
Cephalothin disappeared by absorption, Osmotic pressure (%) X 4 [5]: 3.1%
Cephalothin disappeared by absorption, Osmotic pressure X 1 [5]: 1.2 percents
Cephalothin disappeared by absorption, Osmotic pressure X 2 [5]: 1.6 percents
Cephalothin disappeared by absorption, Osmotic pressure X 4 [5]: 3.1 percents
Molecule: CC(=O)OCC1=C(C(=O)O)N2C(=O)[C@@H](NC(=O)Cc3cccs3)[C@H]2SC1 [Cephalothin.Na, reference compound]

Concentration in plasma 5 min. [2]: 4500 ng/mL
Concentration in plasma 10 min. [2]: 15400 ng/mL
Concentration in plasma 20 min. [2]: 10500 ng/mL
Concentration in plasma 30 min. [2]: 7500 ng/mL
Concentration in plasma 60 min. [2]: 4600 ng/mL
Concentration in plasma 90 min. [2]: 2900 ng/mL
Concentration in plasma 120 min. [2]: 900 ng/mL
Molecule: Cc1onc(-c2c(Cl)cccc2Cl)c1C(=O)N[C@@H]1C(=O)N2[C@@H]1SC(C)(C)[C@@H]2C(=O)O [Dicloxacillin.Na]

medicine disappeared by absorption, Osmotic pressure X 1 [1, 9]: 5.8 percents
medicine disappeared by absorption, Osmotic pressure X 4 [1, 10]: 13.0 percents
Molecule: CCCCCCCC(=O)[O-].[Na+] [Sodium caprylate, sodium caprylate]

Excreted amount in urine (0-6 hr, %) [6]: 1.0%
Molecule: Colistin methane sulfonate sodium [Colistin methanesulfonate sodium]

Excreted amount in urine (0-6 hr, %) [6]: 0.8%
Molecule: Polymyxin B
